{
  "source": "PubChem BioAssay (NCI)",
  "assay_in_all_cases": "NCI anticancer screen, dose series, 48 h",
  "key": {"BT-549 breast": {"system": "BT-549 breast"}, "DU-145 prostate": {"system": "DU-145 prostate"}, "HOP-62 NSCLC": {"system": "HOP-62 NSCLC"}, "HT29 colon": {"system": "HT29 colon"}, "MCF7 breast": {"system": "MCF7 breast"}, "NCI-H226 lung": {"system": "NCI-H226 lung"}, "OVCAR-8 ovarian": {"system": "OVCAR-8 ovarian"}, "SF-539 CNS": {"system": "SF-539 CNS"}, "SK-MEL-5 melanoma": {"system": "SK-MEL-5 melanoma"}, "SN12C renal": {"system": "SN12C renal"}},
  "note": "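Dose response: 5 concentrations. Exposure: 48 h. Format: 96-well plates. Endpoint: linear interpolation; highest concentration if not reached. Here, GI50 denotes the concentration required for 50% inhibition of growth. The concentration for full growth arrest is given as TGI.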",
  "data": [
    {"smiles": "NCCN1CCN(c2nccc(-c3ccc4ccccc4c3)n2)CC1", "values": [
      {"measurement": "GI50", "setting": "BT-549 breast", "result": 4.89, "unit": "µM"},
      {"measurement": "TGI", "setting": "BT-549 breast", "result": 18.2, "unit": "µM"},
      {"measurement": "GI50", "setting": "DU-145 prostate", "result": 1.85, "unit": "µM"},
      {"measurement": "TGI", "setting": "DU-145 prostate", "result": 3.42, "unit": "µM"},
      {"measurement": "GI50", "setting": "HOP-62 NSCLC", "result": 1.76, "unit": "µM"},
      {"measurement": "TGI", "setting": "HOP-62 NSCLC", "result": 3.28, "unit": "µM"},
      {"measurement": "GI50", "setting": "HT29 colon", "result": 1.93, "unit": "µM"},
      {"measurement": "TGI", "setting": "HT29 colon", "result": 3.77, "unit": "µM"},
      {"measurement": "GI50", "setting": "MCF7 breast", "result": 1.67, "unit": "µM"},
      {"measurement": "TGI", "setting": "MCF7 breast", "result": 3.52, "unit": "µM"},
      {"measurement": "GI50", "setting": "NCI-H226 lung", "result": 2.03, "unit": "µM"},
      {"measurement": "TGI", "setting": "NCI-H226 lung", "result": 5.66, "unit": "µM"},
      {"measurement": "GI50", "setting": "OVCAR-8 ovarian", "result": 2.25, "unit": "µM"},
      {"measurement": "TGI", "setting": "OVCAR-8 ovarian", "result": 5.6, "unit": "µM"},
      {"measurement": "GI50", "setting": "SF-539 CNS", "result": 1.79, "unit": "µM"},
      {"measurement": "TGI", "setting": "SF-539 CNS", "result": 3.28, "unit": "µM"},
      {"measurement": "GI50", "setting": "SK-MEL-5 melanoma", "result": 1.67, "unit": "µM"},
      {"measurement": "TGI", "setting": "SK-MEL-5 melanoma", "result": 3.05, "unit": "µM"},
      {"measurement": "GI50", "setting": "SN12C renal", "result": 1.71, "unit": "µM"},
      {"measurement": "TGI", "setting": "SN12C renal", "result": 3.81, "unit": "µM"}
    ]},
    {"smiles": "COc1cc(-c2cn(C)c(=O)c(C)c2C)cc(OC)c1CN1CC[C@H](N2CCN(c3ccc(N[C@H]4CCC(=O)NC4=O)cc3F)CC2)C(F)(F)C1", "values": [
      {"measurement": "GI50", "setting": "BT-549 breast", "result": 12.6, "unit": "µM"},
      {"measurement": "TGI", "setting": "BT-549 breast", "result": 28.3, "unit": "µM"},
      {"measurement": "GI50", "setting": "DU-145 prostate", "result": 27.6, "unit": "µM"},
      {"measurement": "TGI", "setting": "DU-145 prostate", "result": "> 100", "unit": "µM"},
      {"measurement": "GI50", "setting": "HOP-62 NSCLC", "result": 14, "unit": "µM"},
      {"measurement": "TGI", "setting": "HOP-62 NSCLC", "result": 39.2, "unit": "µM"},
      {"measurement": "GI50", "setting": "HT29 colon", "result": 11.4, "unit": "µM"},
      {"measurement": "TGI", "setting": "HT29 colon", "result": 27.2, "unit": "µM"},
      {"measurement": "GI50", "setting": "MCF7 breast", "result": 3.16, "unit": "µM"},
      {"measurement": "TGI", "setting": "MCF7 breast", "result": 29.6, "unit": "µM"},
      {"measurement": "GI50", "setting": "NCI-H226 lung", "result": 13.7, "unit": "µM"},
      {"measurement": "TGI", "setting": "NCI-H226 lung", "result": 29.1, "unit": "µM"},
      {"measurement": "GI50", "setting": "OVCAR-8 ovarian", "result": 11.2, "unit": "µM"},
      {"measurement": "TGI", "setting": "OVCAR-8 ovarian", "result": 25.7, "unit": "µM"},
      {"measurement": "GI50", "setting": "SF-539 CNS", "result": 14.4, "unit": "µM"},
      {"measurement": "TGI", "setting": "SF-539 CNS", "result": 28.6, "unit": "µM"},
      {"measurement": "GI50", "setting": "SK-MEL-5 melanoma", "result": 4.64, "unit": "µM"},
      {"measurement": "TGI", "setting": "SK-MEL-5 melanoma", "result": 18.8, "unit": "µM"},
      {"measurement": "GI50", "setting": "SN12C renal", "result": 11.6, "unit": "µM"},
      {"measurement": "TGI", "setting": "SN12C renal", "result": 26.8, "unit": "µM"}
    ]},
    {"smiles": "COc1cc2c3c(n(CCCN4CCC(N)CC4)c(=O)c2cc1OC)-c1cc2c(cc1C3=O)OCO2", "values": [
      {"measurement": "GI50", "setting": "BT-549 breast", "result": 2.41, "unit": "µM"},
      {"measurement": "TGI", "setting": "BT-549 breast", "result": 9.84, "unit": "µM"},
      {"measurement": "GI50", "setting": "DU-145 prostate", "result": 0.14, "unit": "µM"},
      {"measurement": "TGI", "setting": "DU-145 prostate", "result": 0.803, "unit": "µM"},
      {"measurement": "GI50", "setting": "HOP-62 NSCLC", "result": 0.423, "unit": "µM"},
      {"measurement": "TGI", "setting": "HOP-62 NSCLC", "result": 1.11, "unit": "µM"},
      {"measurement": "GI50", "setting": "HT29 colon", "result": 0.621, "unit": "µM"},
      {"measurement": "TGI", "setting": "HT29 colon", "result": 9.81, "unit": "µM"},
      {"measurement": "GI50", "setting": "MCF7 breast", "result": 0.283, "unit": "µM"},
      {"measurement": "TGI", "setting": "MCF7 breast", "result": 1.01, "unit": "µM"},
      {"measurement": "GI50", "setting": "NCI-H226 lung", "result": 0.757, "unit": "µM"},
      {"measurement": "TGI", "setting": "NCI-H226 lung", "result": 2.95, "unit": "µM"},
      {"measurement": "GI50", "setting": "OVCAR-8 ovarian", "result": 0.368, "unit": "µM"},
      {"measurement": "TGI", "setting": "OVCAR-8 ovarian", "result": 1.51, "unit": "µM"},
      {"measurement": "GI50", "setting": "SF-539 CNS", "result": 0.254, "unit": "µM"},
      {"measurement": "TGI", "setting": "SF-539 CNS", "result": 0.863, "unit": "µM"},
      {"measurement": "GI50", "setting": "SK-MEL-5 melanoma", "result": 1.84, "unit": "µM"},
      {"measurement": "TGI", "setting": "SK-MEL-5 melanoma", "result": 8.47, "unit": "µM"},
      {"measurement": "GI50", "setting": "SN12C renal", "result": 0.338, "unit": "µM"},
      {"measurement": "TGI", "setting": "SN12C renal", "result": 1.08, "unit": "µM"}
    ]},
    {"smiles": "C=C(C)[C@@H]1CC[C@@]2(C(=O)O)CC[C@]3(C)C(CCC4[C@@]5(C)CCC(OS(=O)(=O)c6ccccc6)C(C)(C)C5CC[C@]43C)C12", "note": "(stereo not given in full)", "values": [
      {"measurement": "GI50", "setting": "BT-549 breast", "result": 3.17, "unit": "µM"},
      {"measurement": "TGI", "setting": "BT-549 breast", "result": 18.7, "unit": "µM"},
      {"measurement": "GI50", "setting": "DU-145 prostate", "result": 6.5, "unit": "µM"},
      {"measurement": "TGI", "setting": "DU-145 prostate", "result": 20.8, "unit": "µM"},
      {"measurement": "GI50", "setting": "HOP-62 NSCLC", "result": 5.15, "unit": "µM"},
      {"measurement": "TGI", "setting": "HOP-62 NSCLC", "result": 18.5, "unit": "µM"},
      {"measurement": "GI50", "setting": "HT29 colon", "result": 5.52, "unit": "µM"},
      {"measurement": "TGI", "setting": "HT29 colon", "result": 18, "unit": "µM"},
      {"measurement": "GI50", "setting": "MCF7 breast", "result": 4.4, "unit": "µM"},
      {"measurement": "TGI", "setting": "MCF7 breast", "result": 19.6, "unit": "µM"},
      {"measurement": "GI50", "setting": "NCI-H226 lung", "result": 7.07, "unit": "µM"},
      {"measurement": "TGI", "setting": "NCI-H226 lung", "result": 28.3, "unit": "µM"},
      {"measurement": "GI50", "setting": "OVCAR-8 ovarian", "result": 5.8, "unit": "µM"},
      {"measurement": "TGI", "setting": "OVCAR-8 ovarian", "result": 88.7, "unit": "µM"},
      {"measurement": "GI50", "setting": "SF-539 CNS", "result": 9.93, "unit": "µM"},
      {"measurement": "TGI", "setting": "SF-539 CNS", "result": 22.4, "unit": "µM"},
      {"measurement": "GI50", "setting": "SK-MEL-5 melanoma", "result": 1.4, "unit": "µM"},
      {"measurement": "TGI", "setting": "SK-MEL-5 melanoma", "result": 17, "unit": "µM"},
      {"measurement": "GI50", "setting": "SN12C renal", "result": 4.88, "unit": "µM"},
      {"measurement": "TGI", "setting": "SN12C renal", "result": 30.6, "unit": "µM"}
    ]}
  ]
}
